Measurements reported in patent US5646261A, “3'-derivatized oligonucleotide analogs with non-nucleotidic groupings, their preparation and use” (Hoechst Aktiengesellschaft, priority 1992, dated 1997).
{Psoralen} = psoralen conjugate attached via phosphate

What was measured:
HSV-1 = test: Inhibition of HSV-1 viral replication in cell culture; format: cell-based, herpes simplex virus type 1
[1] = system: E1b (SP1 binding region of adenovirus E1b); test: Inhibition of transcription of E1b; details: as sense oligonucleotide, simulates the SP1 binding region

"psoralen"-pGpGpTpGpTpTpTpGpGpGpGpGpTpTpGpG(5'5'S)GpTpTpGpGpGpGpT2pTpGpTpGpTpGp-"psoralen") (chain 1 NGTTGGGGGTTTGTGN; chain 2 NTTGGGGTTGTGTN; 3' {Psoralen}, sugars by position, backbone and the base at N not given here; two pieces joined 5'-5' through S linker) [IA-4, oligonucleotide modified with psoralen at both 3'-ends]
inhibition of HSV-1 replication by triplex formation (HSV-1; target: origin of replication (oriL) of the HSV-1 genome): inhibits replication of the latter by triplex formation

d(GpGpGpCpGpGpGpGpCpTpTpApApApGpG(3'5'S)CpCpTpTpTpApApGpCpCpCpCpGpCpCpCp-O- -(CH2 CH2 O)8 (CH2)13 CH3) (DNA GGGCGGGGCTTAAAGNNCTTTAAGCCCCGCCN; chemistry not fully specified) [IB-2, 3'-modified oligonucleotide analog with a 3'5'-spacer]
inhibition of transcription of E1b [1]: inhibits the transcription of E1b

d(p-Nitrophenylethyl-2-oxy-pC(5'5'p)GpTpCpCpApTpGpTpCpGpGpCpApApApCpApGpCpTp-O-i-C3 H7) (DNA NNTCCATGTCGGCAAACAGCN; chemistry not fully specified) [IA-2]
inhibition of HSV-1 replication (HSV-1; cell culture, sequence I directed against mRNA of transactivator protein Vmw65, sequences II and III against splice-acceptor region of IE4/5 precursor mRNA): inhibit HSV-1 replication
